Source: patent US20260232827A1, “ANTIBODY-DRUG CONJUGATES TARGETING NAPI2B AND METHODS OF USE” (Zymeworks BC Inc., priority 2023, published 2026)

Experiments:
Test in all cases: Binding region mapping, flow cytometry on transfected HEK293-6e cells
Conditions in all cases: 24 hours at 4° C.
[1] = tested on: Construct 2 (chimeric human NaPi2b, region 280-301)
Source text: (§1) NaPi2b constructs containing deletions in the main extracellular loop of human NaPi2b, as well as chimeric NaPi2b/NaPi2c constructs concerning this main loop, were generated.
(§2) As a complementary strategy, two additional constructs were designed in which the relevant region of the main loop was deleted such as to mimic NaPi2c/NaPi2a main extracellular loop (Constructs 6-7 in Table 52.1). Clones were generated at GenScript Biotech (Piscataway, NJ).
(§3) Constructs were expressed in HEK293-6e cells as follows. Cells were maintained under standard culture conditions (37° C./5% CO2) with shaking at 110 rpm for suspension and cultured in FreeStyle™ 293 Expression Medium (Thermo Fisher Scientific, Waltham, MA) supplemented with 1% fetal bovine serum (Thermo Fisher Scientific, Waltham, MA) and 1× Penicillin-Streptomycin (Thermo Fisher Scientific, Waltham, MA). Cells were transfected with clones expressing the constructs listed in Table 52.1, at 1 μg of DNA per 1 million cells, using 293Fectin™ Transfection Reagent (Thermo Fisher Scientific, Waltham, MA) and Opti-MEM™ I Reduced Serum Medium (Thermo Fisher Scientific, Waltham, MA), and incubated for 24 hours under standard culture conditions (37° C./5% CO2/110 rpm). Following transfection, cells were seeded at 50,000 cells/well in conical-bottom 96-well plates and treated with a serial dilution of test antibody for 24 hours at 4° C. to prevent internalization. Cells were treated with final concentrations of all humanized antibodies of 200, 20, or 2 nM. Cells were treated with final concentrations of the reference anti-NaPi2a rabbit antibody of 50, 5, or 0.5 nM. […] Following incubation and washing, fluorescence was detected by flow cytometry on a BD LSRFortessa™ Cell Analyzer (BD Biosciences, Franklin Lake, NJ) with 1,000 minimum events collected per well. […] Background-subtracted AF647 Mean Fluorescence Intensity (MFI) values were calculated by subtracting the average MFI of three technical replicates of unstained (no primary antibody) cells.

[2] = tested on: Construct 1 (chimeric human NaPi2b, region 239-259)
Source text: as §1, §2, §3

[3] = molecular target: T1, Construct 7 (human NaPi2b deletion, region 317-326) (Homo sapiens, UniProt O95436, DEL317-326)
T1 construct: host or cells: HEK293-6e
T1 sequence (O95436 with tags, fused parts or gaps DEL317-326): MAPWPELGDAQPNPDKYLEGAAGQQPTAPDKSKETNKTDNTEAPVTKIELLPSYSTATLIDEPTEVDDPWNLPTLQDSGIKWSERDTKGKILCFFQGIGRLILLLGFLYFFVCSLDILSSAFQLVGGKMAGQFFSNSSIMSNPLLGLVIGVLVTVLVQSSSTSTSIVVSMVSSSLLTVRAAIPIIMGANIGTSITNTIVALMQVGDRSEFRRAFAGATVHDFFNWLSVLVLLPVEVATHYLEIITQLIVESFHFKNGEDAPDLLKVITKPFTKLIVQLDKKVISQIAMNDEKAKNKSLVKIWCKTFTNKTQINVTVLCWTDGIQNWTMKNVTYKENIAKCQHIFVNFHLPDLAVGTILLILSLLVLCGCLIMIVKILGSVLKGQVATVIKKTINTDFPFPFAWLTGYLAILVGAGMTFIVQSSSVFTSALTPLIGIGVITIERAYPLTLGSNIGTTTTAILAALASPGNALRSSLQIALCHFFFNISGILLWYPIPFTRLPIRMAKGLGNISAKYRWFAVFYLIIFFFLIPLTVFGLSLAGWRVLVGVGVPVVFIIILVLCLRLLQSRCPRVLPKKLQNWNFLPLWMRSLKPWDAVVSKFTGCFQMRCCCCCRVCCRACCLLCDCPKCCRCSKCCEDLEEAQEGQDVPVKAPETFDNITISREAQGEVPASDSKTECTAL
Source text: as §1, §2, §3

Q: For palivizumab [palivizumab (v21995)], which “Background-Subtracted AF647 Mean Fluorescence Intensity” value ([1]; antibody 2.0 nM) is on record?
A: -69

Q: What about the “Background-Subtracted AF647 Mean Fluorescence Intensity” value ([1]; antibody 20.0 nM) of the same substance?
A: -64

Q: What about the “Background-Subtracted AF647 Mean Fluorescence Intensity” value ([1]; antibody 200.0 nM) of the same substance?
A: -30

Q: What about the “Background-Subtracted AF647 Mean Fluorescence Intensity” value ([2]; antibody 2.0 nM) of the same substance?
A: -30

Q: What about the “Background-Subtracted AF647 Mean Fluorescence Intensity” value ([2]; antibody 20.0 nM) of the same substance?
A: -27

Q: And the “Background-Subtracted AF647 Mean Fluorescence Intensity” value ([2]; antibody 200.0 nM)?
A: 12

Q: What about the “Background-Subtracted AF647 Mean Fluorescence Intensity” value ([3]; antibody 2.0 nM) of the same substance?
A: -34

Q: What about the “Background-Subtracted AF647 Mean Fluorescence Intensity” value ([3]; antibody 20.0 nM) of the same substance?
A: -85

Q: And the “Background-Subtracted AF647 Mean Fluorescence Intensity” value ([3]; antibody 200.0 nM)?
A: -97
